Reference: patent publication US11780838B1, “Pyrrolo[3,2-b]quinoline compounds as antibacterial agents” (King Faisal University, priority 2023, dated 2023)
pIC50: −log10 of the molar value. Values after ≈ are worked out from the molar mass of the structure shown. Read-outs that look alike come from different tables or passages of the source.

How the values were obtained:
[1] = test system: Klebsiella pneumonia MTCC 618; test: In vitro antibacterial activity (MIC, CLSI M07-A10 dilution); type: cell-based; details: Klebsiella pneumoniae, MTCC618
[2] = test system: Mycobacterium tuberculosis H37Rv strain; test: Anti-tubercular properties (alamar blue microplate MIC); type: cell-based; details: 168 h, seven days at 37° C., read-out: anti-mycobacterial activity (MIC)
DNA gyrase from E. coli = biological target: T1, DNA gyrase from E. coli (Escherichia coli, UniProt P0AES4+P0AES6); test: Inhibitory activities on E. coli DNA gyrase (Inspiralis assay); type: biochemical
T1 construct: purchased Inspiralis
Procedure: Inhibitory potencies were investigated utilizing the Inspiralis assay on streptavidin-coated 96-well microtiter plates. First, the plates were rehydrated with buffer (20 mM Tris-HCl with pH 7.6, 0.01% w/v BSA, 0.05% v/v Tween 20, 137 mM NaCl) and the biotinylated oligonucleotide was then immobilized. After washing off the unbound oligonucleotide, the enzyme test was performed. […] Reaction solutions were incubated at 37° C. for 30 min. After that, the TF buffer (50 mM NaOAc with pH 5.0, 50 mM NaCl and 50 mM MgCl2) was added to terminate the enzymatic reaction. After additional incubation for 30 min at rt, during which biotinoligonucleotide-plasmid triplex was formed, the unbound plasmid was washed off using TF buffer and SybrGOLD in T10 buffer (10 mM Tris HCl with pH 8.0 and 1 mM EDTA) was added. The fluorescence was measured with a microplate reader (BioTek Synergy H4, excitation: 485 nm, emission: 535 nm). Initial screening was done at 100 or 10 μM concentration of inhibitors. […] GraphPad Prism software was used to calculate the IC50 values. The result is given as the average value of three independent measurements.

[3] = test system: Staphylococcus aureus ATCC 29213; test: In vitro antibacterial activity (MIC, CLSI M07-A10 dilution); type: cell-based; details: ATCC29213
[4] = test system: Staphylococcus aureus ATCC BAA-1556 (MERSA resistant); test: as above; type: cell-based; details: ATCCBAA1556
[5] = test system: Staphylococcus epidermidis; test: as above; type: cell-based
[6] = test system: Bacillus subtilis MTCC 441; test: as above; type: cell-based; details: MTCC441
[7] = test system: Enterococcus faecium ATCC 35667; test: as above; type: cell-based; details: ATCC35667
[8] = test system: Enterococcus faecium ATCC 51559 (VRE resistant); test: as above; type: cell-based
[9] = test system: Escherichia coli MTCC 443; test: as above; type: cell-based; details: MTCC443
[10] = test system: Pseudomonas aeruginosa MTCC 741; test: as above; type: cell-based; details: MTCC741

T1 sequence (P0AES4 whole entry, one chain of several): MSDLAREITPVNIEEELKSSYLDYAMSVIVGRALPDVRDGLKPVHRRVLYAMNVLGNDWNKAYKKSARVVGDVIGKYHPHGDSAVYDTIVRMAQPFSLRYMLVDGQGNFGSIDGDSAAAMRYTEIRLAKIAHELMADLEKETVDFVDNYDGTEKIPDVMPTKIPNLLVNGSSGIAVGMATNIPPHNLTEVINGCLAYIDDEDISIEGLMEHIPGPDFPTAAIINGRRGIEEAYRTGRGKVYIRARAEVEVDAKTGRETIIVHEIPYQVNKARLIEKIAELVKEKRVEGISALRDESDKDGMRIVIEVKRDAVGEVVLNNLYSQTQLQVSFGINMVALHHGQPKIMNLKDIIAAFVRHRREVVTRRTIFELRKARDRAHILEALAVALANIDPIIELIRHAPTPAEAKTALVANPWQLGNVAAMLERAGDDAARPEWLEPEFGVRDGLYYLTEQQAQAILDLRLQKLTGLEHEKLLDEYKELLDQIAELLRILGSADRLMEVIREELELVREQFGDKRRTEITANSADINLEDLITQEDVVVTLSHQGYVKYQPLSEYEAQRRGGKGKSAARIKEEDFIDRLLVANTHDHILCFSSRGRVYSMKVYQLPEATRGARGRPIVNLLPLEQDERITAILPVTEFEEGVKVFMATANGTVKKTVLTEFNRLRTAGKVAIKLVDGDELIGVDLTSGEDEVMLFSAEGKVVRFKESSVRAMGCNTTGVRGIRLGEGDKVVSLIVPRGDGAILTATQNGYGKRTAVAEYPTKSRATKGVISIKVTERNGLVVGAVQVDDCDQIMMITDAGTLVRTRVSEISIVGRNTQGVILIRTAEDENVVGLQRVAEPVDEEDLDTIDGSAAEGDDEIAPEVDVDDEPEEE

CN[C@H](CC(C)C)C(=O)N[C@H]1C(=O)N[C@@H](CC(N)=O)C(=O)N[C@H]2C(=O)N[C@H]3C(=O)N[C@H](C(=O)N[C@H](C(=O)O)c4cc(O)cc(O)c4-c4cc3ccc4O)[C@H](O)c3ccc(c(Cl)c3)Oc3cc2cc(c3O[C@@H]2O[C@H](CO)[C@@H](O)[C@H](O)[C@H]2O[C@H]2C[C@](C)(N)[C@H](O)[C@H](C)O2)Oc2ccc(cc2Cl)[C@H]1O [Vancomycin, reference compound]
MIC [1]: > 128 µg/mL

CNc1cc(F)cc2cc3[nH]c(-c4ccc(C(=O)O)cc4CN(C)C4CCCCC4)cc3nc12 [Compound 4, 3-((cyclohexyl(methyl)amino)methyl)-4-(7-fluoro-5-(methylamino)-1H-pyrrolo[3,2-b]quinolin-2-yl)benzoic acid]
MIC [2]: 8 µg/mL (≈ 17.4 µM)
pIC50 (DNA gyrase from E. coli): 7.49

CCCCCN(C)Cc1cc(C(=O)O)ccc1-c1cc2nc3c(NC)cc(F)cc3cc2[nH]1 [Compound 6, 4-(7-fluoro-5-(methylamino)-1H-pyrrolo[3,2-b]quinolin-2-yl)-3-((methyl(pentyl)amino)methyl)benzoic acid]
MIC [3]: 1 µg/mL (≈ 2.23 µM)
MIC [4]: 1 µg/mL (≈ 2.23 µM)
MIC [5]: 1 µg/mL (≈ 2.23 µM)
MIC [6]: 0.75 µg/mL (≈ 1.67 µM)
MIC [7]: 1 µg/mL (≈ 2.23 µM)
MIC [8]: 1.25 µg/mL (≈ 2.79 µM)
MIC ([1]; Klebsiella pneumonia MTCC 618, read-out: MIC): 1.25 µg/mL (≈ 2.79 µM)
MIC [9]: 8 µg/mL (≈ 17.8 µM)
MIC [10]: 1 µg/mL (≈ 2.23 µM)
